Laboratory results reported in patent US11439707B2, “Hypocrellin derivative substituted both in a peri-position and in 2-position by amino, preparation method, and application thereof” (priority 2017, dated 2022).
Entries after “also recorded” stand apart in the source; their conditions may differ.

Tests used:
[1] = singlet oxygen efficiency test, reference rose bengal; type: physicochemical; details: for singlet oxygen efficiencies: comparison with reference rose bengal RB, FIG. 7
[2] = reactive oxygen measurement with singlet oxygen and superoxide radical scavengers; type: physicochemical; details: FIG. 6(a), 6(b)
Source text: FIGS. 7(a)-7(d) show efficiency curves of measuring singlet oxygen of HB-1c and HC-1c. From the comparison with a reference rose bengal RB, it can be seen that the singlet oxygen efficiencies of HB-1c and HC-1c are respectively 0.40 and 0.38.

[3] = absorption spectrum (maximum absorption wavelength, molar extinction coefficient); type: physicochemical
[4] = pH stability of absorption spectrum; type: physicochemical; details: pH range of 6.2-8.0, FIG. 8
Source text: Therefore, the hypocrellin derivative prepared in the present invention has a better pH stability than the commercial hematoporphyrin HpD in the pH range of 6.2-8.0.

[5] = water solubility in normal saline; type: physicochemical; details: per milliliter of normal saline
Experimental: Most of photosensitizer molecules disclosed in this patent contain a large number of hydrophilic groups, such as a polyethylene glycol chain, a quaternary ammonium salt, a carboxyl group, and a sulfonic acid group, etc., making the photosensitizer molecules have very high water solubility in a physiological condition; and experiments indicate that each milliliter of normal saline or glucose injection can dissolve more than 5 mg of such the photosensitizer molecules, presenting excellent water solubility. Therefore, the photosensitive drug can be well transported in blood vessels during intravenous injection, without causing a vascular blockage. HB-1c-C2-N+ prepared in example 4 contains two quaternary ammonium salts, and each milliliter of normal saline can dissolve more than 20 mg of photosensitizer molecules; HC-1c-PEG6 prepared in example 6 contains two 6-PEG chains, and each milliliter of normal saline can dissolve more than 20 mg of photosensitizer molecules; HB-8c prepared in example 19 contains two carboxyl groups, and each milliliter of normal saline can dissolve more than 10 mg of photosensitizer molecules; HB-13c prepared in example 35 contains two carboxyl groups, and each milliliter of normal saline can dissolve more than 10 mg of photosensitizer molecules; and HB-13c-PEG8 prepared in example 37 contains two 8-PEG chains, and each milliliter of normal saline can dissolve more than 20 mg of photosensitizer molecules. These photosensitizer molecules all present excellent water solubility.

singlet oxygen in a cell = experiment: detection of singlet oxygen in a cell with fluorescence probe DCFH-DA; type: cell-based; details: co-incubation with DCFH-DA, irradiation time to 60 s, FIG. 11
Source text: DCFH-DA is used to detect singlet oxygen in a cell.

Hela cells [6] = experiment: photo-cytotoxicity experiment (MTT, 635 nm laser); type: cell-based
Experimental: Photo-cytotoxicity experiment on cell: cultured Hela cells were digested and pipetted with 0.25% trypsin and to prepare a single-cell suspension, the number of cells was adjusted to about 2×10^4 per milliliter, and 200 uL of the suspension was seeded in a well of a 96-well culture plate, which is placed in a 37° C. incubator containing 5% CO2 for cultivation. After the cells adhere to the wall, a supernatant culture solution was discarded, and photosensitizers of different concentrations, that is, the hematoporphyrin derivative HpD, the hypocrellin B HB, or HB-1c-PEG6 synthesized in example 3, were added in a strictly lucifugous condition in accordance with experimental designs, and the culture plate was placed in the 37° C. incubator containing 5% CO2 for further cultivation and incubation for 1 hour. Then, a semiconductor laser with a wavelength of 635 nm was used for irradiation, a power density was adjusted to 20 mW/cm^2, light beams were evenly and vertically applied onto the 96-well culture plate, and an irradiation time was 1000 S. In addition, each 96-well culture plate is provided with a blank group, and 6 holes were provided for in each condition. After irradiation, the culture plate was placed in the 37° C. incubator containing 5% CO2 for further cultivation and incubation for 24 hours, and then a cellular survival rate was measured. The cellular survival rate was measured by means of the MTT method. 20 uL of MTT was added to each well, wherein the MTT is MTT prepared with PBS and having a concentration of 5 mg/ml. The culture plate was placed in the 37° C. incubator containing 5% CO2 for further cultivation for 4 hours, after which the cultivation was terminated. A supernatant in the well was extracted and discarded carefully. Then, 150 uL of dimethyl sulfoxide (DMSO) was added to each well, and the culture plate was shaken by using a micro shaker for 10 minutes to fully dissolve a purple crystal substance. A wavelength of 570 nm was selected to measure an optical density value (i.e., OD value) of each well on a microplate reader, and the cellular survival rate was calculated in accordance with the following formula: cellular survival rate=OD value of an experimental group/OD value of a blank group×100%.

Hela cells [7] = experiment: dark cytotoxicity experiment (MTT); details: for cytotoxicity when not exposed to light: dark
Experimental: Dark cytotoxicity experiment: cultured Hela cells were digested with 0.25% trypsin and pipetted to prepare a single-cell suspension, the number of cells was adjusted to about 2×10^4 per milliliter, and 200 uL of the suspension was seeded in a well of a 96-well culture plate, which is placed in a 37° C. incubator containing 5% CO2 for cultivation. […] A cellular survival rate was measured by means of the MTT method. 20 uL of MTT was added to each well, wherein the MTT is MTT prepared with PBS and having a concentration of 5 mg/ml. The culture plate was placed in the 37° C. incubator containing 5% CO2 for further cultivation for 4 hours, after which the cultivation was terminated. A supernatant in the well was extracted and discarded carefully. Then, 150 uL of dimethyl sulfoxide was added to each well, and the culture plate was shaken by using a micro shaker for 10 minutes to fully dissolve a purple crystal substance. A wavelength of 570 nm was selected to measure an optical density value (i.e., OD value) of each well on a microplate reader, and the cellular survival rate was calculated in accordance with the following formula: cellular survival rate=OD value of an experimental group/OD value of a blank group×100%.

Compound | singlet oxygen efficiencies [1] | photosensitive reactive species produced [2] | molar extinction coefficient [3] | pH stability, change in absorption spectrum [4] | singlet oxygen yield [1] [%] | amount dissolved by each milliliter of normal saline [5] | maximum absorption wavelength [3] [nm] | singlet oxygen in the cell (DCFH-DA green fluorescence) (singlet oxygen in a cell) | Hela cells killed (Hela cells [6]; 140 nM, 635 nm light, FIG. 13(b)) | cytotoxicity when not exposed to light (Hela cells [7]) | Hela cells killed (Hela cells [6]; 240 nM, 635 nm light, FIG. 15(b)) | Hela cells killed (Hela cells [6]; 160 nM, 635 nm laser, FIG. 12(b)) | cytotoxicity (dark toxicity) (Hela cells [7]; 10 μM, incubated half hour, FIG. 12(a))
COc1c2c3c4c(c(NCCOCCO)c(=O)c5c(NCCOCCO)cc(OC)c(c6c(OC)cc(O)c(c1=O)c63)c54)C=C(C)C2C(C)=O (stereo not drawn) [HB-1c] | 0.40 | primarily producing singlet oxygen | – | – | – | – | – | – | – | – | – | – | –
COc1c2c3c4c(c(NCCOCCO)c(=O)c5c(NCCOCCO)cc(OC)c(c6c(OC)cc(O)c(c1=O)c63)c54)C=C(C)C2 [HC-1c] | 0.38 | – | 30,000 M^−1cm^−1 | no obvious change | 38 | – | – | – | – | – | – | – | –
COCCOCCOCCOCCOCCOCCOCCC(=O)OCCOCCNc1c2c3c4c(c(OC)c(=O)c5c(O)cc(OC)c(c6c(OC)cc(NCCOCCOC(=O)CCOCCOCCOCCOCCOCCOCCOC)c(c1=O)c63)c54)CC(C)=C2 [HC-1c-PEG6] | – | – | 33,500 M^−1cm^−1 | good pH stability; also recorded: no obvious change | 34 | more than 20 mg | 628 | green fluorescence intensity is gradually increased | more than 90% | almost no cytotoxicity | – | – | –
COCCOCCOCCOCCOCCOCCOC(=O)CCCNc1c2c3c4c(c(OC)c(=O)c5c(O)cc(OC)c(c6c(OC)cc(NCCCC(=O)OCCOCCOCCOCCOCCOCCOC)c(c1=O)c63)c54)CC(C)=C2 [HC-8c-PEG6] | – | – | 31,500 M^−1cm^−1 | – | 36 | – | 632 | – | – | almost no cytotoxicity | more than 90% | – | –
COCCOCCOCCOCCOCCOCCOCCC(=O)OCCOCCNc1c2c3c4c(c(OC)c(=O)c5c(O)cc(OC)c(c6c(OC)cc(NCCOCCOC(=O)CCOCCOCCOCCOCCOCCOCCOC)c(c1=O)c63)c54)C(C(C)=O)C(C)=C2 (stereo not drawn) [HB-1c-PEG6] | – | – | 34,500 M^−1cm^−1 | – | 34 | – | 628 | – | – | – | – | more than 90% | basically non-cytotoxic
